Like-named read-outs stand apart in the source and are kept apart here.
Assays:
[1] = Water oxidation with sodium periodate, Clark electrode
Source text: Chem. Soc., 2010, vol. 132, pp. 16017-16029:

[2] = for TOF / TON: 5 μM catalyst, 20 mM NaIO4 in 180 mM NaOAc; for Enhancement as pH change from 3 to 6: ratio pH 6 to pH 3
Description: Catalysts of the formula Cp*IrCl(n,n′-DHBP)]Cl according to the present invention were used for water oxidation at a variety of different pH levels. These catalysts were the same catalysts as the first three catalysts used in Example 6.5 μM catalyst with 20 mM NaIO4 in 180 mM NaOAc were employed.

[3] = UV-Vis titration, Na2HPO4/HCl buffers pH 2.5-9.2; simultaneous removal of both ligand protons
Description: Approximately 100 mL of 0.1M Na2HPO4 was put into a beaker and stirred and the pH was recorded. 2 mL of 0.0000034M catalyst was put into 10 mL volumetric flasks (final concentration of Ir complex is 6.8 μM). 100 mL of 0.1M Na2HPO4 was titrated with 0.1M HCl until it reached the desired buffer pH (every 0.5 pH unit). At each desired buffer pH, 8 mL of the solution was put into the volumetric flasks. pH's used were as follows: 9.2, 8.0, 7.5, 7.0, 6.5, 6.0, 5.5, 5.0, 4.5, 4.0, 3.5, 3.0, 2.5. […] UV/Vis spectra for each solution were obtained (FIG. 5).

[4] = 5 μM catalyst; for 10 min: TOF / 10 min: TON / TOF: 20 mM NaIO4, pH 5.6, 25° C.; for TOF / Initial Rate: first 30 sec; for Initial Rate: 20 mM NaIO4, pH 5.6 NaOAc buffer, 25° C.
Description: Catalysts were used for water oxidation with NaIO4 as an oxidant.
20 mM of NaIO4 was added. The pH was 5.6 and NaOAc was used as a buffer. The vessel and catalyst solution were maintained at 25° C.

[5] = 5 μM catalyst
Description: A catalyst according to the present invention [Cp*Ir^III(DHBP)Cl]Cl was used for water oxidation with cerium (IV) ammonium nitrate (CAN) as the oxidant. The reaction progress was monitored by a Clark electrode to measure the increase in dissolved oxygen with time in a sealed vessel. For longer reaction times, the amount of oxygen that builds up in the headspace is significant and was measured by pressure transducers. In the first set of experiments, the concentration of catalyst was 5 μM and CAN=67 mM at pH=6.0. […] A prior art catalyst, catalyst 15(Cat 15 in FIG. 4, “Cat 15+67 mM CAN”) was used as a comparison. The prior art Cat 15 is represented by the formula taken from Blakemore, et al., “Half-sandwich iridium complexes for homogeneous water-oxidation catalysis,” J. Am. Chem. Soc., 2010, vol. 132, pp. 16017-16029:
In a second set of experiments, the concentration of catalyst was 5 μM. Cat5 was used in a buffered aqueous solution at pH 5.6 with 17 mM sodium periodate as the oxidant, as shown in green in FIG. 4.

[6] = 17 mM NaIO4 as oxidant, 25° C.
Source text: Rates were most linear from 30 to 240 seconds. […] In this analysis, the slope corresponds to reaction order in Ir catalyst.

[7] = Hydrogenation of acetophenone, comparison of five catalysts; settings: 0.02 mmole catalyst, 85-90° C., 24 hours unless x=18, y=20, z=21 hours
Description: Five catalysts were used to catalyze hydrogenation of acetophenone. The first four are represented by the following structures:
These catalysts are represented as 1-4 in Table 4. The last catalyst is [(η^6-p-cymene)RuCl2]2. The reaction mixture contained 0.02 mmole catalyst, 10 mmole of NaO2CH or 2 mmole of KOH, 0.667 mmole of 1,3,4-trimethoxybenzene as internal standard, and 10 mL solvent. The reaction was carried out under N2 at 85-90° C. for 24 hours unless otherwise stated (x=18 hours, y=20 hours, z=21 hours). The percentage conversion was determined by ^1H-NMR as an average of two trials.

[8] = Hydrogenation of ketones with NaO2CH in MeOH:water; settings: for % conversion: 1 mole % catalyst, 10:90 MeOH:water, NaO2CH, reflux 16-18 hours
Description: (§1) [drawing 11] was used for hydrogenation of several different organic substrates. For ketones, the reaction was carried out by mixing 1 mole % of catalyst, 10:90 of MeOH:water and NaO2CH, and heated to reflux for 16-18 hours. For imines, the reaction was carried out by mixing 1 mole % of catalyst, THF, NEt3 base (5 molar %) and 75 psi H2(g), with heating to reflux for 48 hours. The catalyst provided a very high percentage conversion for ketones in water.

[9] = Hydrogenation of imines with H2 in THF; settings: substrate N-benzylidene-methylamine
Description: as §1

[10] = Hydrogenation of acetophenone under various conditions; settings: 90° C., 16-17 hours
Description: [drawing 12] was used to catalyze hydrogenation of acetophenone under various conditions. For each mole of the substrate, 5 moles of a base is used. The reaction is carried out at 90° C. for 16-17 hours.

[11] = first 30 seconds of reaction, 5 μM catalyst, 78 mM CAN, 25° C.
[12] = first 10 minutes of reaction, 5 μM catalyst, 78 mM CAN, 25° C.
[13] = 5 μM catalyst, pH 5.6 buffered, 17 mM sodium periodate
[14] = substrate 2-methoxy-acetophenone
[15] = substrate 4-methoxy-acetophenone

Q: With Cc1c(C)c(C)[c-](C)c1C.[Cl-].[Cl][Ir+2].c1ccc(-c2ccccn2)nc1 [Cat15, reference compound] as the compound, how does the “activity in water oxidation (in words)” value ([1]; 5 μM catalyst, pH 5.6, 17 mM oxidant ("under these conditions")) read?
A: The value was “not active”.

Q: Which TOF ([2]; pH = 3 for 10 minutes) does the source give for Cc1c(C)c(C)[c-](C)c1C.Oc1ccnc(-c2cc(O)ccn2)c1.[Cl-].[Cl-].[Ir+3] [[Cp*IrCl(4,4′-DHBP)]Cl, [Cp*Ir(4,4′-dhbp)Cl]Cl] here?
A: The TOF was 0 min⁻¹.

Q: And the TON ([2]; pH = 3 for 10 minutes)?
A: The TON was 0.

Q: And the TOF ([2]; pH = 6 for 10 minutes)?
A: Its TOF is 14 min⁻¹.

Q: What about the TON ([2]; pH = 6 for 10 minutes) of the same compound?
A: The TON was 124.

Q: What about the “Enhancement as pH change from 3 to 6” value [2] of the same compound?
A: Its value is over 124X.

Q: What about the pKa [3] of the same compound?
A: The pKa was 4.4±0.2.

Q: What about the “10 min: TOF” value [4] of the same compound?
A: Its value is 11.87 min⁻¹.

Q: What about the “10 min: TON” value [4] of the same compound?
A: The value was 118.70.

Q: And the TOF [4]?
A: The TOF was 21.35 ± 3 min⁻¹.

Q: What about the “Initial Rate” value [4] of the same compound?
A: Its value is 106.25 ± 3 μM O2 min^−1.

Q: What about the “Initial Rate” value [11] of the same compound?
A: The value was 81.25 ± 12 μmole O2 L^−1 min^−1.

Q: What about the TOF [11] of the same compound?
A: The TOF was 16.33 ± 12 min⁻¹.

Q: What about the TOF [12] of the same compound?
A: Its TOF is 4.33 min⁻¹.

Q: What about the TON [12] of the same compound?
A: Its TON is 43.34.

Q: With Cc1c(C)c(C)[c-](C)c1C.Oc1cccc(-c2cccc(O)n2)n1.[Cl-].[Cl][Ir+2] [[Cp*IrCl(6,6′-DHBP)]Cl, [Cp*Ir(6,6′-DHBP)Cl]Cl] as the compound, how does the TOF ([2]; pH = 3 for 10 minutes) read?
A: Its TOF is 0.14 min⁻¹.

Q: What about the TON ([2]; pH = 3 for 10 minutes) of the same compound?
A: The TON was 1.3.

Q: And the TOF ([2]; pH = 6 for 10 minutes)?
A: Its TOF is 14 min⁻¹.

Q: And the TON ([2]; pH = 6 for 10 minutes)?
A: Its TON is 120.

Q: And the “Enhancement as pH change from 3 to 6” value [2]?
A: The value was 92X.

Q: What about the pKa [3] of the same compound?
A: The pKa was 4.6±0.1.

Q: What about the “10 min: TOF” value [4] of the same compound?
A: The value was 9.99 min⁻¹.

Q: And the “10 min: TON” value [4]?
A: The value was 99.86.

Q: And the TOF [4]?
A: Its TOF is 10.04 ± 3 min⁻¹.

Q: What about the “Initial Rate” value [4] of the same compound?
A: Its value is 50 ± 3 μM O2 min^−1.

Q: And the “water oxidation (in words)” value ([5]; CAN=17 mM)?
A: The value was “does not oxidize water appreciably”.

Q: And the TOF ([5]; CAN=67 mM, pH=6.0)?
A: The TOF was 6.4 min⁻¹.

Q: What about the “initial rate of oxygen evolution” value ([5]; CAN=67 mM, pH=6.0) of the same compound?
A: Its value is 31 µM/min.

Q: What about the TON ([5]; in 5 min, CAN=67 mM, pH=6.0) of the same compound?
A: Its TON is 14.

Q: And the TOF [1, 13]?
A: Its TOF is 6.3 min⁻¹.

Q: And the “initial rate of oxygen generation” value [1, 13]?
A: Its value is 31 µM/min.

Q: And the TOF ([1]; at higher NaIO4 concentrations)?
A: The TOF was 18 min⁻¹.

Q: What about the TON ([1]; at higher NaIO4 concentrations, in 5 mM (so in the source)) of the same compound?
A: The TON was 84.

Q: And the TON ([1]; in 5 min, 5 μM catalyst, pH 5.6, 17 mM sodium periodate)?
A: Its TON is 36.

Q: What about the “slope of ln(rate) vs. ln([catalyst]) (reaction order in Ir catalyst)” value [6] of the same compound?
A: Its value is 0.94.

Q: And the “Initial Rate” value [11]?
A: The value was 75.00 ± 15 μmole O2 L^−1 min^−1.

Q: What about the TOF [11] of the same compound?
A: Its TOF is 15.07 ± 15 min⁻¹.

Q: What about the TOF [12] of the same compound?
A: Its TOF is 3.89 min⁻¹.

Q: And the TON [12]?
A: Its TON is 38.93.

Q: With Cc1c(C)c(C)[c-](C)c1C.[Cl-].[Cl-].[Ir+3].c1ccc(-c2ccccn2)nc1 [[Cp*IrCl(bipy)]Cl, reference compound] as the compound, how does the “10 min: TOF” value [4] read?
A: The value was 0.064 min⁻¹.

Q: And the “10 min: TON” value [4]?
A: Its value is 0.64.

Q: And the TOF [4]?
A: Its TOF is 0 ± 3 min⁻¹.

Q: And the “Initial Rate” value [4]?
A: The value was 0 ± 3 μM O2 min^−1.

Q: What about the Initial Rate (as stated in text of Example 5) of the same compound?
A: Its Initial Rate is 72±3 mole O2 L^−1 s^−1.

Q: And the “turnover frequency (TOF)” value (as stated in text of Example 5)?
A: The value was 14.4±0.7.

Q: Which “% conversion” value ([7]; KOH, ^1PrOH) does the source give for Cc1ccc(C(C)C)cc1.Cc1ccc(C(C)C)cc1.[Cl][Ru][Cl].[Cl][Ru][Cl] [[p-cymRuCl2]2, [(η^6-p-cymene)RuCl2]2] here?
A: The value was 100%.

Q: What about the “% conversion” value ([7]; NaO2CH, 10/90 MeOH/H2O) of the same compound?
A: The value was 15%.

Q: And the “% conversion” value ([7]; NaO2CH, 50/50 MeOH/H2O)?
A: Its value is 13%.

Q: What about the “% conversion” value ([7]; NaO2CH, H2O) of the same compound?
A: Its value is 13%.

Q: Which results are given for Cc1ccc(C(C)C)cc1.Oc1cccc(-c2cccc(O)n2)n1.[Cl-].[Cl][Ru+] [drawing 11]?
A: Turnover frequency [8, 14]: 8.83 h⁻¹; Turnover number [8, 14]: 53; % conversion [8, 14]: 53%; Turnover frequency ([8]; substrate 2′-acetonaphtone): 13.50 h⁻¹; Turnover number ([8]; substrate 2′-acetonaphtone): 81; % conversion ([8]; substrate 2′-acetonaphtone): 81%; Turnover frequency ([8]; substrate 4-bromo-acetophenone): 16.17 h⁻¹; Turnover number ([8]; substrate 4-bromo-acetophenone): 97; % conversion ([8]; substrate 4-bromo-acetophenone): 97%; Turnover frequency [8, 15]: 10.71 h⁻¹; Turnover number [8, 15]: 65; % conversion [8, 15]: 65%; Turnover frequency ([8]; substrate acetophenone): 16.17 h⁻¹; Turnover number ([8]; substrate acetophenone): 97; % conversion ([8]; substrate acetophenone): 97%; Turnover frequency [9]: 0.63 h⁻¹; Turnover number [9]: 30; % conversion ([9]; 1 mole % catalyst, THF, NEt3, 75 psi H2, reflux 48 hours): 30%

Q: Which “% conversion” value ([10]; 1 mole % catalyst, NaO2CH, 10/90 MeOH/H2O) does the source give for Cc1ccc(C(C)C)cc1.Oc1cccc(-c2cccc(O)n2)n1.[Cl-].[Cl][Ru+] [drawing 12] here?
A: Its value is 97%.

Q: What about the “% conversion” value ([10]; 1 mole % catalyst, NaO2CH, 50/50 MeOH/H2O) of the same compound?
A: The value was 96%.

Q: And the “% conversion” value ([10]; 1 mole % catalyst, NaO2CH, H2O)?
A: The value was 31%.

Q: What about the “% conversion” value ([10]; 5 mole % catalyst, NaO2CH, H2O) of the same compound?
A: Its value is 89%.

Q: What about the “% conversion” value ([10]; 5 mole % catalyst, NaO2CH/HO2CH, H2O) of the same compound?
A: Its value is 89%.
